Here are results for 28 compounds from patent US7473790B2 (Pfizer Inc., priority 2003, dated 2009).

In this assay the target is T1, HCV polymerase (Hepatitis C virus genotype 1b, UniProt P26663).
T1 construct: 2.5 pmoles (0.15 μg) HCV polymerase protein in a final volume of 75 μL
T1 sequence (P26663 2420-3010): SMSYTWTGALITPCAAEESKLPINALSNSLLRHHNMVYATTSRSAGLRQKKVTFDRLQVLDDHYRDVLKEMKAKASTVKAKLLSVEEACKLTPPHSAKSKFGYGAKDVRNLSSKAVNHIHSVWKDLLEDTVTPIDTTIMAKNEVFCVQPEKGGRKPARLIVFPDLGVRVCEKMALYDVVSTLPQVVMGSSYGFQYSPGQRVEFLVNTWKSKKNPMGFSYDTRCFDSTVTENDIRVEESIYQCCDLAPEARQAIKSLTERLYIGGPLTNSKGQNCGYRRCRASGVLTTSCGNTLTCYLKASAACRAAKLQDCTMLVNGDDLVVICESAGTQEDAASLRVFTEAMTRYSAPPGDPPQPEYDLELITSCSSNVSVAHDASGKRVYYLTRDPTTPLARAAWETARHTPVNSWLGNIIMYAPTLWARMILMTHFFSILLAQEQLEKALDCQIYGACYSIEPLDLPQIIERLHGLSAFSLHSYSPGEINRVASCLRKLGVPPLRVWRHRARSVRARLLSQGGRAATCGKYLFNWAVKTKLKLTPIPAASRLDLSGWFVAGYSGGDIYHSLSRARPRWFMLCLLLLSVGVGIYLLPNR
The experiment in a line: HCV polymerase primer/template-directed transcription assay (32P-GTP incorporation, filter binding). The settings on record: recombinant HCV polymerase; 30 minutes at 30° C.; concentration giving 50% inhibition of polymerase-directed transcription; read-out: IC50. Type of assay: biochemical. A digest of the protocol: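 IC50s come from triplicate cpm, refit with an enzyme-concentration (30 nM) correction when under 200 nM. Reactions ran 30 min at 30° C in Tris pH 7.2 with MgCl2, 1 μM GTP spiked with α-32P-GTP, biotin-dG12 primer and poly(rC)300 template, with 1% DMSO. Incorporated label was collected on DE filtermats and counted.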
Consider `COc1ccc(CCC2(C3CCCC3)CC(O)=C(Cc3nc(C)nn3C)C(=O)O2)cc1Cl` (stereo not shown) [B(53), 6-[2-(Chloro-4-methoxyphenyl)ethyl]-6-cyclopentyl-3-[(1,3-dimethyl-1H-1,2,4-triazol-5-yl)methyl]-4-hydroxy-5,6-dihydro-2H-pyran-2-one], for which the IC50 (commonly the midpoint of a concentration-inhibition curve) is 350 nM.
Consider `COc1ccc(CCC2(C3CCCC3)CC(O)=C(Cc3nc(C)cc(=O)[nH]3)C(=O)O2)cc1Cl` (stereo not shown) [B(54), 2-({6-[-(3-chloro-4-methoxyphenyl)ethyl]-6-cyclopentyl-4-hydroxy-2-oxo-5,6-dihydro-2H-pyran-3-yl}methyl)-6-methylpyrimidin-4(3H)-one], for which the IC50 came to 300 nM.
Regarding `COc1ccc(CCC2(C3CCCC3)CC(O)=C(Cc3nc4ccccc4c(=O)[nH]3)C(=O)O2)cc1Cl` (stereo not shown) [B(55), 2-({6-[2-(3-Chloro-4-methoxyphenyl)ethyl]-6-cyclopentyl-4-hydroxy-2-oxo-5,6-dihydro-2H-pyran-3-yl}methyl)quinazolin-4(3H)-one], the IC50 was found to be 150 nM.
Consider `COc1ccc(CCC2(C3CCCC3)CC(O)=C(Cc3nc4ccsc4c(=O)[nH]3)C(=O)O2)cc1Cl` (stereo not shown) [B(56), 2-({6-[2-(3-Chloro-4-methoxyphenyl)ethyl]-6-cyclopentyl-4-hydroxy-2-oxo-5,6-dihydro-2H-pyran-3-yl}methyl)thieno[3,2-d]pyrimidin-4(3H)-one], for which the IC50 worked out at 100 nM.
For the compound `COc1ccc(CCC2(C3CCCC3)CC(O)=C(Cc3nc4cc(OC)c(OC)cc4c(=O)[nH]3)C(=O)O2)cc1Cl` (stereo not shown) [B(57), 2-({6-[2-(3-chloro-4-methoxyphenyl)ethyl]-6-cyclopentyl-4-hydroxy-2-oxo-5,6-dihydro-2H-pyran-3-yl}methyl)-6,7-dimethoxyquinazolin-4(3H)-one], the IC50 turned out to be 50 nM.
As to `Cc1csc2nc(CC3=C(O)CC(CCc4ccc(OCC5CC5)c(Cl)c4)(C4CCCC4)OC3=O)cc(=O)n12` (stereo not shown) [B(58), 7-[(6-{2-[3-Chloro-4-(cyclopropylmethoxy)phenyl]ethyl}-6-cyclopentyl-4-hydroxy-2-oxo-5,6-dihydro-2H-pyran-3-yl)methyl]-3-methyl-5H-[1,3]thiazolo[3,2-a]pyrimidin-5-one], the IC50 is 6200 nM.
As to `COc1cc(OC)c(CCC2(C3CCCC3)CC(O)=C(Cc3cc(=O)n4c(C)csc4n3)C(=O)O2)cc1Cl` (stereo not shown) [B(59), 7-({6-[2-(5-Chloro-2,4-dimethoxyphenyl)ethyl]-6-cyclopentyl-4-hydroxy-2-oxo-5,6-dihydro-2H-pyran-3-yl}methyl)-3-methyl-5H-[1,3]thiazolo[3,2-a]pyrimidin-5-one], the IC50 stood at 6 nM.
Take `COC(=O)Nc1cc(CC2=C(O)CC(CCc3ccc(OC)cc3)(C3CCCC3)OC2=O)on1` (stereo not shown) [B(60), Methyl 5-({6-cyclopentyl-4-hydroxy-6-[2-(4-methoxyphenyl)ethyl]-2-oxo-5,6-dihydro-2H-pyran-3-yl}methyl)isoxazol-3-ylcarbamate]: the IC50 was determined as 540 nM.
In the case of `COc1ccc(CCC2(C3CCCC3)CC(O)=C(Cc3cc(=O)n4c(C)csc4n3)C(=O)O2)cc1` (stereo not shown) [B(61), 7-({6-Cyclopentyl-4-hydroxy-6-[2-(4-methoxyphenyl)ethyl]-2-oxo-5,6-dihydro-2H-pyran-3-yl}methyl)-3-methyl-5H-[1,3]thiazolo[3,2-a]pyrimidin-5-one], the IC50 was 120 nM.
As to `CCc1noc(CC2=C(O)CC(CCc3cc(Cl)c(OC)cc3OC)(C3CCCC3)OC2=O)n1` (stereo not shown) [B(62), 6-[2-(5-Chloro-2,4-dimethoxyphenyl)ethyl]-6-cyclopentyl-3-[(3-ethyl-1,2,4-oxadiazol-5-yl)methyl]-4-hydroxy-5,6-dihydro-2H-pyran-2-one], the IC50 worked out at 200 nM.
In the case of `COc1cc(OC)c(CCC2(C3CCCC3)CC(O)=C(Cc3nc4cc(OC)c(OC)cc4c(=O)[nH]3)C(=O)O2)cc1Cl` (stereo not shown) [B(63), 2-({6-[2-(5-Chloro-2,4-dimethoxyphenyl)ethyl]-6-cyclopentyl-4-hydroxy-2-oxo-5,6-dihydro-2H-pyran-3-yl}methyl)-6,7-dimethoxyquinazolin-4(3H)-one], the IC50 came out at 16 nM.
`COc1cc(OC)c(CCC2(C3CCCC3)CC(O)=C(Cc3nc4ccsc4c(=O)[nH]3)C(=O)O2)cc1Cl` (stereo not shown) [B(64), 2-({6-[2-(5-Chloro-2,4-dimethoxyphenyl)ethyl]-6-cyclopentyl-4-hydroxy-2-oxo-5,6-dihydro-2H-pyran-3-yl}methyl)thieno[3,2-d]pyrimidin-4(3H)-one]: the IC50 was determined as 33 nM.
For `COc1cc(OC)c(CCC2(C3CCCC3)CC(O)=C(Cc3nc4ccccc4c(=O)[nH]3)C(=O)O2)cc1Cl` (stereo not shown) [B(65), 2-({6-[2-(5-Chloro-2,4-dimethoxyphenyl)ethyl]-6-cyclopentyl-4-hydroxy-2-oxo-5,6-dihydro-2H-pyran-3-yl}methyl)quinazolin-4(3H)-one] the value was 110 nM; for `COc1ccc(CCC2(C3CCCC3)CC(O)=C(Cc3cc(=O)[nH]c(-c4ccccn4)n3)C(=O)O2)cc1` (stereo not shown) [B(66), 6-({6-Cyclopentyl-4-hydroxy-6-[2-(4-methoxyphenyl)ethyl]-2-oxo-5,6-dihydro-2H-pyran-3-yl}methyl)-2-pyridin-2-ylpyrimidin-4(3H)-one], 220 nM.
In the case of `O=C1OC(CCc2ccc(OCc3ccccc3)cc2)(C2CCCC2)CC(O)=C1Cc1cc(=O)[nH]c(C2CC2)n1` (stereo not shown) [B(67), 6-[(6-{2-[4-(Benzyloxy)phenyl]ethyl}-6-cyclopentyl-4-hydroxy-2-oxo-5,6-dihydro-2H-pyran-3-yl)methyl]-2-cyclopropylpyrimidin-4(3H)-one], the IC50 turned out to be 3200 nM.
`COc1cc(OC)c(CCC2(C3CCCC3)CC(O)=C(Cc3nc(C)cc(=O)[nH]3)C(=O)O2)cc1Cl` (stereo not shown) [B(68), 2-({6-[2-(5-Chloro-2,4-dimethoxyphenyl)ethyl]-6-cyclopentyl-4-hydroxy-2-oxo-5,6-dihydro-2H-pyran-3-yl}methyl)-6-methylpyrimidin-4(3H)-one]: the IC50 was determined as 100 nM.
Under `Cc1nc(CC2=C(O)CC(CCc3ccc(C(F)F)c(F)c3)(C3CCCC3)OC2=O)n(C)n1` (stereo not shown) [B(69), 6-Cyclopentyl-6-{2-[4-(difluoromethyl)-3-fluorophenyl]ethyl}-3-[(1,3-dimethyl-1H-1,2,4-triazol-5-yl)methyl]-4-hydroxy-5,6-dihydro-2H-pyran-2-one] stands 800 nM; under `Cc1nc(CC2=C(O)CC(CCc3ccc(OCC4CC4)c(Cl)c3)(C3CCCC3)OC2=O)n(C)n1` (stereo not shown) [B(70), 6-{2-[3-Chloro-4-(cyclopropylmethoxy)phenyl]ethyl}-6-cyclopentyl-3-[(1.3-dimethyl-1H-1,2,4-triazol-5-yl)methyl]-4-hydroxy-5,6-dihydro-2H-pyran-2-one], 240 nM; under `COc1cc(OC)c(CCC2(C3CCCC3)CC(O)=C(Cc3nc(C)nn3C)C(=O)O2)cc1Cl` (stereo not shown) [B(71), 6-[2-(5-Chloro-2,4-dimethoxyphenyl)ethyl]-6-cyclopentyl-3-[(1,3-dimethyl-1H-1,2,4-triazol-5-yl)methyl]-4-hydroxy-5,6-dihydro-2H-pyran-2-one], 80 nM.
Regarding `COC(=O)Nc1cc(CC2=C(O)CC(CCc3ccc(C(F)F)c(F)c3)(C3CCCC3)OC2=O)on1` (stereo not shown) [B(72), Methyl 5-[(6-cyclopentyl-6-{2-[4-(difluoromethyl)-3-fluorophenyl]ethyl}-4-hydroxy-2-oxo-5,6-dihydro-2H-pyran-3-yl)methyl]isoxazol-3-ylcarbamate], the IC50 worked out at 1400 nM.
With `COc1cc(OC)c(CCC2(C3CCCC3)CC(O)=C(Cc3nc(-c4ccccn4)no3)C(=O)O2)cc1Cl` (stereo not shown) [B(73), 6-[2-(5-Chloro-2,4-dimethoxyphenyl)ethyl]-6-cyclopentyl-4-hydroxy-3-[(3-pyridin-2-yl-1,2,4-oxadiazol-5-yl)methyl]-5,6-dihydro-2H-pyran-2-one], the IC50 came out at 62 nM.
Take `Cc1nc(CC2=C(O)CC(CCc3ccc(OC(F)F)c(Cl)c3)(C3CCCC3)OC2=O)n(C)n1` (stereo not shown) [B(74), 6-{2-[3-Chloro-4-(difluoromethoxy)phenyl]ethyl}-6-cyclopentyl-3-[(1,3-dimethyl-1H-1,2,4-triazol-5-yl)methyl]-4-hydroxy-5,6-dihydro-2H-pyran-2-one]: the IC50 is 3400 nM.
As for `Cc1cc(C)n2nc(CC3=C(O)CC(CCc4ccc(C(C)(C)C#N)c(F)c4)(C4CCCC4)OC3=O)nc2n1` (stereo not shown) [B(75), 2-(4-{2-[2-Cyclopentyl-5-(5,7-dimethyl-[1,2,4]triazolo[1,5-a]pyrimidin-2-ylmethyl)-4-hydroxy-6-oxo-3,6-dihydro-2H-pyran-2-yl]-ethyl}-2-fluoro-phenyl)-2-methyl-propionitrile], the IC50 stood at 3 nM.
On to `Cc1cc(C)n2nc(CC3=C(O)CC(CCc4ccc(C5(C#N)CC5)c(F)c4)(C4CCCC4)OC3=O)nc2n1` (stereo not shown) [B(76), 1-(4-{2-[2-Cyclopentyl-5-(5,7-dimethyl-[1,2,4]triazolo[1,5-a]pyrimidin-2-ylmethyl)-4-hydroxy-6-oxo-3,6-dihydro-2H-pyran-2-yl]-ethyl}-2-fluoro-phenyl)-cyclopropanecarbonitrile], for which the IC50 is 1 nM.
As to `COc1ccc(CCC2(C3CCCC3)CC(=O)C(Cc3ccccc3)C(=O)O2)cc1` (stereo not shown) [B(77), 3-benzyl-6-cyclopentyl-6-[2-(4-methoxyphenyl)ethyl]dihydro-2H-pyran-2,4(3H)-dione], the IC50 came to 5500 nM.
In the case of `COc1ccc(CCC2(C3CCCC3)CC(=O)C(Cc3ccccc3)C(=O)O2)cc1Cl` (stereo not shown) [B(78), 3-benzyl-6-[2-(3-chloro-4-methoxyphenyl)ethyl]-6-cyclopentyldihydro-2H-pyran-2,4(3H)-dione], the IC50 was 1000 nM.
For the compound `C=CCC1C(=O)CC(CCc2ccc(OC)c(Cl)c2)(C2CCCC2)OC1=O` (stereo not shown) [B(79), 3-allyl-6-[2-(3-chloro-4-methoxyphenyl)ethyl]-6-cyclopentyldihydro-2H-pyran-2,4(3H)-dione], the IC50 worked out at 2400 nM.
With `COc1ccc(CCC2(C3CCCC3)CC(=O)C(Cc3cccnc3)C(=O)O2)cc1Cl` (stereo not shown) [B(80), 6-[2-(3-chloro-4-methoxyphenyl)ethyl]-6-cyclopentyl-3-(pyridin-3-ylmethyl)dihydro-2H-pyran-2,4(3H)-dione], the IC50 turned out to be 560 nM.
